From patent publication EP2177218A1, “Regenerative therapy” (Medizinische Universität Wien, priority 2008, dated 2010)
Entries after “also recorded” stand apart in the source; their conditions may differ.

Legend:
demyelinating lesions = assay: Remyelination in vivo after ethidium bromide lesions, blind ranking of semithin resin sections; design: species or system Sprague Dawley rats; details: 0.5 mg/kg/d s.c. osmotic pumps, 14 days post lesion induction, preliminary
Procedure: The in vitro finding that rolipram is able to promote OPC differentiation in the presence of MAI was further developed to confirm remyelination in vivo. For this purpose demyelinating lesions were induced by topic injection of ethidium bromide into white matter tracts of young adult Sprague Dawley rats, and rolipram was applied subcutaneously by continuous osmotic pumps. 0,5mg/KG/d of rolipram was used in the first set of experiments that assessed the rate of remyelination. […] This is the first experiment that succeeded in enhancing the efficiency of remyelination in this model (Fig. 16).

EB lesions = assay: In situ hybridisation for cell markers in EB lesions; format: in vivo, Sprague-Dawley rats; details: 0,5mg/KG/d s.c.; for number of active OPCs (Nkx2.2): day 7, vs PBS vehicle; for macrophage marker MRSB (immune response): day 7 and day 14, vs PBS vehicle; for number of PDGFR-α positive OPCs in lesions / number of PLP positive cells (mature oligodendrocytes): day 14, vs PBS vehicle
Procedure: To validate the finding that administration of rolipram promotes CNS remyelination, the experiments were repeated as follows. EB lesions were induced in Sprague-Dawley rats, and rats were treated either with rolipram (0,5mg/KG/d) or PBS vehicle administered via s.c. osmotic pumps implanted 3 days post lesion induction. Animals were sacrificed at day 7 and day 14 post lesion induction and the tissue processed for in situ hybridization. The lesion area was visualized and measured on digitized solochrome cyanine stained sections and the number of cells within the lesion area as detected by ISH was determined.
PDGFR-α, a general marker for OPCs, was used to determine the presence of OPCs in the lesions.
Nkx2.2 can be used to detect activated OPCs within remyelinating lesions.
To detect mature oligodendrocytes, in situ hybridization for PLP was conducted. The extent of remyelination in control animals at 14 days is minimal. As to be expected in control animals the number of PLP positive cells remained unchanged at day 7 and day 14.
Finally, ISH for MRSB, a marker for macrophages, was used to determine whether rolipram treatment affects the immune response.

OPCs [1] = assay: OPC differentiation on myelin protein extract (MPE) or myelin substrate, O4 immunocytochemistry, pharmacological agents; format: cell-based, Sprague-Dawley rat; details: for OPC differentiation / O4 expression in the presence of myelin inhibitors (result in words): differentiation medium; for max. mean increase of OPC differentiation: 48 hours incubation in differentiation medium, Fig. 4; for mean increase of OPC differentiation: OPCs on myelin (MPE)
Procedure: Primary cultures of oligodendrocyte precursor cells were isolated from PO-P2 neonatal Sprague-Dawley rat forebrains following a Standard protocol (McCarthy et al., J Cell Biol 85 (1980): 890-902) that were adapted for the present purpose (Syed et al. 2008, supra). In brief, hemispheres were stripped free of meninges, after a digestion step the cells were plated into cell culture flasks and mixed glia cultures were grown for approx. 10 days in DMEM medium supplemented with 10% PCS at 37°C and 7,5% CO2. To remove the loosely attached microglia the flasks were shaken for 1 hour at 260rpm on an orbital shaker before being shaken at 260rpm overnight to dislodge the loosely attached oligodendrocyte precursors. OPCs were further purified from contaminating microglia by a differential adhesion step. Subsequently OPCs were plated onto polylysine (PLL)-coated or Substrate coated dishes. To maintain cells at an early precursor stage PDGF-AA (Pepro Tech) and FGF (Pepro Tech) were added (10ng/ml) to SATOs medium. To induce differentiation cells were incubated in SATOs medium supplemented with 0.5% FCS. The purity of each culture was monitored following OPC purification by immunocytochemistry and only cultures with >94% purity were used. In the cultures minor contaminations of microglia that can be detected by isolectin staining and which amount to 4-5% of the cells, as well as by astrocytes (detectable by GFAP) and fibroblasts with distinct morphology, which account for about 1-2% of the cells are present.
To prepare myelin protein extract (MPE) the pellets were re-suspended in 1% N-octyl β-D-glucopyranoside, 0.2M Sodiumphosphate pH 6.8, 0.1 M Na2SO4 and 1mM EDTA and incubated at 23°C for 2 hours. Following an ultracentrifugation step (100,000 x g, 18°C, 30 min) the supernatants were collected and stored at -20°C until further usage.
The pooled OPCs harvested as outlined above were seeded at the same density of 20000 cells per well into polylysine (PLL)-coated 8-well chamber slides. Cells were differentiated for 48 hours and subsequently fixed with 4% paraformaldehyde in PBS, permeabilised and blocked with 0.3% Triton X-100 and 10% NGS. To assess the differentiation state of OPCs the cells were incubated with 04 antibody (1:100; Chemicon) for 1 hour in the presence of 0.1% Triton X-100 and 2% NGS, washed, and incubated for another 1 hour with the appropriate fluorescent secondary antibody (Cy3-conjugated antibody 1:100; Jackson Immuno Research) and the nuclei were stained using DAPI (Robinson et al., Dev Biol 216 (1999): 359-368; Syed et al. 2008, supra). It is important to note that permeabilisation of cells results in a punctate representation of the extracellular antigen 04 (Reynolds et al., Curr Opin Biotechnol 4 (1993): 734-738; Weiss et al., J Neurosci 16 (1996): 7599-7609; Syed et al. 2008, supra). Under an Olympus X51 fluorescent microscope using a triple-filter the percentage of O4-positive cells in relation to >100 DAPI-stained nuclei in randomly selected eye fields for each experimental condition were determined. To establish the purity of the OPC cultures immunocytochemistry for A2B5 (1:100; Chemicon) was performed according to the same principles and the percentage of A2B5+ cells to >100 DAPI-stained nuclei in randomly selected eye fields was determined. Only cell cultures with >94% A2B5-pos. cells were used for the present study. To assess the morphological phenotype of OPCs, A2B5+-cells were categorised according to the following criteria: stage 1: mono/bipolar; stage II: multipolar, primary branched; stage III: multipolar, secondary branched; stage IV: secondary branched cells with membranous processes.
To examine whether ROCK-II and PKC Signal transduction is implicated in the myelin mediated differentiation block, pharmacological inhibitors were added to the culture medium immediately after cell seeding. […]

CREB = CREB phosphorylation in OPCs (immunoprecipitation, Western blot for phospho-CREB); format: cell-based, Sprague-Dawley rat; details: in the presence of MAI, Fig. 14
OPCs [2] = assay: TUNEL assay (apoptosis); format: cell-based, Sprague-Dawley rat; details: treated OPCs on MPE vs OPCs on PLL control, Fig. 7
Procedure: Fragmented DNA was detected by incorporation of biotinylated nucleotides at the 3'-OH DNA ends using Terminal Deoxynucleotidyl Transferase recombinant (rTdT) enzyme according to the manufacturer's instruction (Promega). Stained cells were visualized by light microscopy and the percentage of apoptotic nuclei was determined.

COc1ccc(C2CNC(=O)C2)cc1OC1CCCC1 (centres unmarked) [rolipram]
extent of remyelination, rank assessment (demyelinating lesions): able to promote remyelination in-vivo; also recorded: potently enhanced | number of active OPCs (Nkx2.2) (EB lesions): effectively increased | number of active OPCs (Nkx2.2) (EB lesions; listed as Rolipram): increase | macrophage marker MRSB (immune response) (EB lesions): no differences detected | macrophage marker MRSB (immune response) (EB lesions; listed as Rolipram): did not affect the immune response | number of PDGFR-α positive OPCs in lesions (EB lesions): remained elevated | number of PLP positive cells (mature oligodendrocytes) (EB lesions): significant increase | number of PDGFR-α positive OPCs in lesions (EB lesions; listed as Rolipram): maintained levels | number of PLP positive cells (mature oligodendrocytes) (EB lesions; listed as Rolipram): strong increase | number of Nkx2.2 positive cells (EB lesions; later stages (day 14), vs PBS vehicle): reached levels of control animals | differentiation capability of OPCs plated on MPE (OPCs [1]; 0.5µM in the medium): completely restore | OPC differentiation / O4 expression in the presence of myelin inhibitors (result in words) (OPCs [1]; OPCs on MPE): able to induce OPC differentiation; also recorded: able to restore OPC differentiation | CREB phosphorylation / activation in OPCs (CREB): restores CREB activation | CREB phosphorylation / activation in OPCs (CREB; listed as Rolipram): inducing CREB phosphorylation

NCCCCN [putrescine]
OPC differentiation / O4 expression in the presence of myelin inhibitors (result in words) (OPCs [1]; OPCs on MPE): not the case | OPC differentiation / O4 expression in the presence of myelin inhibitors (result in words) (OPCs [1]; OPCs on MPE, listed as Putrescine): does not stimulate OPC differentiation

12-(2-cyanoethyl)-6,7,12,13-tetrahydro-13-methyl-5-oxo-5H-indolo[2,3-a]pyrrollo[3,4-c]carbazole [Gö6976]
apoptosis, TUNEL positive cells (OPCs [2]): no differences | max. mean increase of OPC differentiation (OPCs [1]; OPCs on MPE): 269% | mean increase of OPC differentiation (OPCs [1]; 50nM, n=3): 267%

CCCC(=O)Nc1ncnc2c1ncn2[C@@H]1O[C@@H]2COP(=O)([O-])O[C@H]2[C@H]1OC(=O)CCC.[Na+] [db-cAMP]
OPC differentiation / O4 expression in the presence of myelin inhibitors (result in words) (OPCs [1]; OPCs on MPE): partially overcome

O=S(=O)(c1cccc2cnccc12)N1CCCNCC1 [HA-1077, 1-(5-lsoquinolinesulfonyl)-1H-hexahydro-1,4-diazepine 2 HCI]
apoptosis, TUNEL positive cells (OPCs [2]): no significant differences | mean increase in the number of differentiating OPCs (OPCs [1]; OPCs on MPE, 5µM, 48 hours in differentiation medium, n=4): 174% | increase of differentiating cells (OPCs [1]; OPCs on MPE, 48h culture in differentiation medium, Fig. 3b): more than 160% | OPC differentiation / O4 expression in the presence of myelin inhibitors (result in words) (OPCs [1]; OPCs on MPE): largely restored

[H]/N=C(/N)SCCCn1cc(C2=C(c3cn(C)c4ccccc34)C(=O)NC2=O)c2ccccc21 [BIM, Bisindolylmaleimide IX]
max. mean increase of OPC differentiation (OPCs [1]; OPCs on MPE): 169% | mean increase of OPC differentiation (OPCs [1]; 6.25nM, n=4): 169%
